{"source": "patent US9560848B2", "about": "“Method and compositions for biofouling deterrence” (Clemson University, priority 2008, dated 2017)", "key": {"[1]": {"tested_on": "cyprids of the barnacle Balanus amphitrite", "format": "in vivo", "description": "Barnacle cyprids were challenged with 30-100 micro molar ranges of noradrenalin. Barnacle cyprids were monitored and assayed over period of 120 hours (5 days). Cyprid metamorphosis was imaged at 24, 48, 96, 120 hour intervals. Images were taken at each intervals and samples preserved for SEM analysis. On the last day of the experiments the metamorphosed barnacles were assayed for viability. The experiments were repeated 4 times with 3 replicates per experiment. […] Post NA treatment, either by flash induction or by incubating the cyprids in ASW containing NA. […] The onset of ecdysis was observed between 24 hr and 48 hr post NA treatment. Metamorphosing juvenile barnacles were seen encased in bivalve cyprid carapace. The pumping action of the thorax similar to beating of cirri was also observed (Glenner and Høeg 1993). […] Some ecdysing barnacles were still encased in cyprid carapaces while others had shed the bivalve carapace. The cyprids that had shed carapace were presumed to have ‘grown’ out of it as opposed to have shed carapace voluntarily as observed in untreated attached cyprids (Glenner and Høeg 1993). […] Ninety-six hours post NA treatment, the operculum with tergal and scutal plates is well demarcated from the wall plates. In contrast, control barnacles can be seen fully calcified with well recognizable wall and opercular shell plates at around 24-48 hr post settlement. Thus the NA treated cyprids took 96 hr to fully metamorphose and calcify but remained unattached and un-cemented to the substratum.\nExploration of surfaces by invertebrate larvae is an important step leading to attachment and metamorphosis into juveniles. Oyster pediveliger larvae and barnacle cyprid larvae investigate surfaces using exploratory structures bearing an array of sensory cells. The effect of the neurotransmitter noradrenaline (NA) was investigated on the cyprids of the barnacle Balanus amphitrite. 1 day old cyprids were challenged with micro-molar concentrations of NA ranging from […] and assayed over 5 days. […] Remnants of cyprid organs such as the antennules were clearly visible in metamorphosed juveniles. […] Cyprids are compared to oyster larvae to understand the effects of NA on the signal transduction cascades involved in larval settlement and to explore NAs potential as a natural fouling deterrent. Materials and Methods One day old cypris larvae of the B. amphitrite were challenged with […] of noradrenaline. Cyprids were challenged in two different ways. One group was flash challenged for 3 hours then washed with artificial sea water (ASW) and incubated in ASW free of NA for the remaining duration of the experiment. The second group was incubated with NA for 24 hours then washed and incubated in ASW for the remaining duration of the experiment. Barnacle cyprids were monitored and assayed over period of 120 hours (5 days). Cyprid metamorphosis was imaged at 24, 48, 96, 120 hour intervals. Images were taken at each intervals and samples preserved for SEM analysis. The cyprid larvae were imaged using, Zeiss discovery V12 stereo-microscope, Nikon AZ100 stereo-macrosope and the Hitachi-4800 field emission scanning electron microscope. On the last day of the experiments the metamorphosed barnacles were assayed for viability. Viability was ascertained by observing the movement of cirri and ability of the metamorphosed barnacles to feed normally. The experiments were repeated 4 times with 3 replicates per experiment."}, "Oyster larvae [2]": {"tested_on": "Oyster larvae", "experiment": "Treatment of oyster larvae with micromolar concentrations of noradrenalin", "format": "in vivo", "description": "Effect of Treatment of Oyster Larvae with Micromolar Concentrations of Noradrenalin"}, "Oyster larvae [3]": {"tested_on": "Oyster larvae", "conditions": "Coon, Bonar et al 1986; cited from earlier work"}}, "data": [{"smiles": "NCC(O)c1ccc(O)c(O)c1", "note": "(racemic) [NA, DL-noradrenaline]", "values": [{"measurement": "metamorphosis of treated cyprids", "setting": "[1]; 30-100 micro molar NA", "value": "metamorphosed into adults"}, {"measurement": "settling, attachment or cementation of cyprids", "setting": "[1]; 30-100 micro molar NA, flash challenge 3 hours or 24 hours incubation, monitored 120 hours, listed as noradrenalin", "value": "prevented them from settling or attaching to a surface"}, {"measurement": "time to fully metamorphose and calcify", "setting": "[1]; NA treated cyprids, controls 24-48 hr post settlement", "value": 96, "unit": "h"}, {"measurement": "swimming of cyprids post NA treatment", "setting": "[1]; flash induction or incubation in ASW containing NA", "value": "stopped swimming and sank to the bottom"}, {"measurement": "appearance of juvenile barnacles compared to controls", "setting": "[1]; in vivo", "value": "appeared to be normal"}, {"measurement": "onset of ecdysis post NA treatment", "setting": "[1]; post NA treatment", "value": "24 to 48", "unit": "h"}, {"measurement": "metamorphosis of treated oyster larvae", "setting": "Oyster larvae [2]", "value": "metamorphose into adult oysters without cementation"}, {"measurement": "settling behavior and cementation of oyster larvae", "setting": "Oyster larvae [2]", "value": "complete disruption of the settling behavior and cementation"}, {"measurement": "viability and development of treated oysters", "setting": "Oyster larvae [2]", "value": "viable and develop normally into adults"}, {"measurement": "swimming of NA treated oyster larvae", "setting": "Oyster larvae [3]", "value": "stopped swimming and sank to the bottom of petri dishes"}]}]}
